{"source": "patent US11807612B2", "about": "“Heterocyclic compound and salt thereof, and luminescent substrate composition” (The University of Electro-Communications, priority 2020, dated 2023)", "key": {"[1]": {"target": "firefly luciferase (Luc) (Photinus pyralis, UniProt P08659)", "sequence (P08659 whole entry)": "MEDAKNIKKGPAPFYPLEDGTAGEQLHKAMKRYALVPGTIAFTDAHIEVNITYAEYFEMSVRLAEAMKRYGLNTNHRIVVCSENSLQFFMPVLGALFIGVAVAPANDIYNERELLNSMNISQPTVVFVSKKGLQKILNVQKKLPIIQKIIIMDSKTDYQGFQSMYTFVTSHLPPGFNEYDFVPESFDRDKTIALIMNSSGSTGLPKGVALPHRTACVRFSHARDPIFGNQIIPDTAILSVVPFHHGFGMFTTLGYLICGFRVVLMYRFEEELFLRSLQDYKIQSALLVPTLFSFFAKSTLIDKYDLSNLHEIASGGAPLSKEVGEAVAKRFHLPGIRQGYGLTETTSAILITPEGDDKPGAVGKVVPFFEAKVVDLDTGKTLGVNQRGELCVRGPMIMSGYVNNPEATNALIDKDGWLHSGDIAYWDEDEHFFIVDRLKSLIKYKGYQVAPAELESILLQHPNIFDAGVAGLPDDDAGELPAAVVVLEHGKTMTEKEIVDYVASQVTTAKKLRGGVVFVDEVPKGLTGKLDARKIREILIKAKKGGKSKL", "settings": "firefly luminescence system; background, PTL 1 to 3; cited from earlier work"}, "[2]": {"target": "T1, Ppy luciferase (derived from North American firefly Photinus pyralis) (Photinus pyralis, UniProt P08659)", "T1 construct": "purchased Promega Corporation E1701", "T1 sequence (P08659 whole entry)": "as above", "assay": "Luminescence spectrum measurement of luminescent substrates with Ppy luciferase, ATP-Mg", "assay_type": "biochemical", "settings": "for peak top wavelength of luminescence spectrum: substrate solution 100 μM, 1 mg/mL Ppy luciferase, 200 μM ATP-Mg, KPB pH 8.0, room temperature, 180 seconds, FIG. 1", "protocol": "The luminescent substrates represented by structural formulae (1-1) and (1-2) that were synthesized as described above, a luminescent substrate represented by the following structural formula (b), and natural firefly luciferin (LH2, produced by Wako Pure Chemical Industries, Ltd.) represented by the following structural formula (d) were each used to measure a luminescence spectrum. Note that the luminescent substrate represented by structural formula (b) was prepared in accordance with Example 1 of JP2014-218456A (PTL 2).\nA weak emission fluorescence spectrometer AB-1850 produced by ATTO Corporation was used to measure a luminescence spectrum. Each measured spectrum is a spectrum that has been corrected for detector characteristics (data interval 0.25 nm, measurement range 400 nm to 750 nm).\nRecombinant luciferase (QuantiLum® (QuantiLum is a registered trademark in Japan, other countries, or both), catalogue no. E1701) produced by Promega Corporation\nAfter mixing 5 μL of KPB solution (pH 8.0, 500 mM), 5 μL of luminescent substrate solution (100 μM), 5 μL of 1 mg/mL Ppy luciferase solution, and 10 μL of 200 μM ATP-Mg solution at room temperature, luminescence spectrum measurement was performed for 180 seconds using the luminescence spectrum measurement apparatus (AB-1850). The luminescence intensity was compared by the peak top value at this time. The results are illustrated in FIG. 1 and FIG. 2.\nFIG. 1 is a luminescence spectrum normalized to give a maximum value for luminescence intensity of 1, and FIG. 2 is a luminescence spectrum illustrating luminescence intensity at each wavelength."}}, "data": [{"smiles": "CN(C)c1ccc(/C=C/C=C/C2=N[C@@H](C(=O)O)CS2)cc1", "note": "[structural formula (a)]", "values": [{"measurement": "maximum wavelength of luminescence spectrum / wavelength of emitted light", "setting": "[1]", "result": "roughly 670 nm"}]}, {"smiles": "CN(C)c1ccc(/C=C/C=C/C2=N[C@@H](C(=O)O)CS2)nc1", "note": "[structural formula (c)]", "values": [{"measurement": "maximum wavelength of luminescence spectrum / wavelength of emitted light", "setting": "[1]", "result": "roughly 670 nm"}]}, {"smiles": "O=C(O)[C@H]1CSC(c2nc3ccc(O)cc3s2)=N1", "note": "[natural firefly luciferin, firefly luciferin]", "values": [{"measurement": "maximum wavelength of luminescence spectrum / wavelength of emitted light", "setting": "[1]", "result": "approximately 560 nm"}]}, {"smiles": "CN(C)c1ncc(/C=C/C=C/C2=N[C@@H](C(=O)O)CS2)s1", "note": "[structural formula (1-1), (S)-2-((1E,3E)-4-(2-(dimethylamino)thiazol-5-yl)buta-1,3-dien-1-yl)-4,5-dihydrothiazole-4-carboxylic acid]", "values": [{"measurement": "luminescence intensity (peak top value) relative to luminescent substrate of structural formula (b)", "setting": "[2]; same conditions, FIGS. 1 and 2", "result": "approximately four times higher"}, {"measurement": "luminescence intensity (peak top value) relative to natural firefly luciferin", "setting": "[2]; same conditions, FIGS. 1 and 2", "result": "approximately half"}, {"measurement": "luminescence wavelength compared with luminescent substrate of structural formula (b)", "setting": "[2]; same conditions, FIGS. 1 and 2", "result": "shorter wavelength"}, {"measurement": "peak top wavelength of luminescence spectrum", "setting": "[2]", "result": "approximately 630 nm"}]}, {"smiles": "CN(C)c1cnc(/C=C/C=C/C2=N[C@@H](C(=O)O)CS2)s1", "note": "[structural formula (1-2), (S)-2-((1E,3E)-4-(5-(dimethylamino)thiazol-2-yl)buta-1,3-dien-1-yl)-4,5-dihydrothiazole-4-carboxylic acid]", "values": [{"measurement": "luminescence intensity (peak top value) relative to luminescent substrate of structural formula (b)", "setting": "[2]; same conditions, FIGS. 1 and 2", "result": "approximately four times higher"}, {"measurement": "luminescence intensity (peak top value) relative to natural firefly luciferin", "setting": "[2]; same conditions, FIGS. 1 and 2", "result": "approximately half"}, {"measurement": "peak top wavelength of luminescence spectrum", "setting": "[2]", "result": "approximately 680 nm"}]}]}
